Measured values from US20230382904A1, “SUBSTITUTED 4-([1,2,4]TRIAZOLO[1,5-a]PYRIDIN-6-YL)THIOPHENE-2-CARBOXAMIDE DERIVATIVES AND USE THEREOF” (The Johns Hopkins University, priority 2020, published 2023).

Key:
DLK = DLK (Homo sapiens (Human), UniProt Q12852); test: DLK biochemical assay (TR-FRET, MKK7 phosphorylation)
Description: DLK assay is a biochemical assay format designed to screen for inhibitors of DLK. Enzymatic activity of DLK was measured by monitoring phosphorylation of the physiological substrate MKK7 (MAP2K7, Dual specificity mitogen-activated protein kinase kinase 7). Phosphorylation was detected by a TR-FRET system whereby His-tagged MKK7 was labeled by a XL665-labeled anti-His antibody (FRET acceptor, emission 665 nm). DLK phosphorylates MKK7 at T275/S277, which was detected by an Eu-labeled anti-phospho-MKK7 (T275/S277) antibody (F RET donor, excitation 340 nm). Phosphorylation of MKK7 results in an increased TR-FRET signal (Ratio XL665-channel/Eu-channel) and inhibition of enzymatic activity of DLK decreases the TR-FRET signal.
Assay Protocol for 1536 MTP format: test compounds were predispensed (60 nl) in test plates; +3 μl DLK solution (10 nM DLK, catalytic domain, Carna Biosiences, 0.6 mM DTT in assay buffer); +2 μl substrate solution (15 nM MKK7, LDB; 60 μM ATP; 0.4 mM DTT in assay buffer); 90 min incubation at RT; +2 μl detection mix (5 nM XL665-labeled anti-His antibody, Cisbio; 0.1 nM Eu-labeled anti-phospho-MKK7 (T275/S277), Cisbio/Millipore in detection buffer); 16 h incubation at 37° C.; endpoint measurement BMG (HTRF).
Assay Protocol for 384 low volume MTP format: 1 μl of test compounds were pipetted into test plate; +5 μl DLK solution (10 nM DLK, catalytic domain, Carna Biosiences in assay buffer); +5 μl substrate solution (15 nM MKK7, LDB; 60 μM ATP, in assay buffer); 90 min incubation at RT; +9 μl detection mix (20 nM XL665-labeled anti-His antibody, Cisbio; 0.4 nM Eu-labeled anti-phospho-MKK7 (T275/S277), Cisbio/Millipore in detection buffer); 16 h incubation at 4° C.; endpoint measurement BMG (HTRF).
(§1) All indicated concentrations final concentrations.
Assay buffer (384 format): 50 mM Hepes pH 7.5, 10 mM MgCl2, 1 mM EGTA, 1 mM DTT, 0,01% Triton X-100, 0.01% BSA, 1:500 Smart Block.
(§2) Detection buffer: 25 mM Tris/HCl pH 7.5, 100 mM EDTA, 100 mM NaCl, 200 mM KF, 0.01% Tween 20, 1:500 Smart Block.

LZK = LZK (Homo sapiens (Human), UniProt O43283); test: LZK biochemical assay (TR-FRET, MKK7 phosphorylation)
Description: LZK assay is a biochemical assay format designed to screen for inhibitors of LZK. Enzymatic activity of LZK was measured by monitoring phosphorylation of the physiological substrate MKK7 (MAP2K7, Dual specificity mitogen-activated protein kinase kinase 7). Phosphorylation was detected by a TR-FRET system whereby His-tagged MKK7 was labeled by a XL665-labeled anti-His antibody (FRET acceptor, emission 665 nm). LZK phosphorylates MKK7 at T275/S277 which were detected by an Eu-labeled anti-phospho-MKK7 (T275/S277) antibody (FRET donor, excitation 340 nm). Phosphorylation of MKK7 results in an increased TR-FRET signal (Ratio XL665-channel/Eu-channel) and inhibition of enzymatic activity of LZK decreases the TR-FRET signal.
Assay Protocol for 384 low volume MTP format: 1 μl of test compound was pipetted into test plate; +5 μl LZK solution (10 nM LZK, catalytic domain, Carna Biosiences in assay buffer); +5 μl substrate solution (15 nM MKK7, LDB; 15 μM ATP, in assay buffer); 90 min incubation at RT; +5 μl detection mix (20 nM XL665-labeled anti-His antibody, Cisbio; 0.4 nM Eu-labeled anti-phospho-MKK7 (T275/S277), Cisbio/Millipore in detection buffer), 16 h incubation at 32° C.; endpoint measurement BMG (HTRF).
as §1
Assay buffer (384 format): 50 mM Hepes pH 7.5, 10 mM MgCl2, 1 mM EGTA, 1 mM DTT, 0.01% Triton X-100, 0.01% BSA, 1:500 Smart Block.
as §2

Sequence of DLK (Q12852 1-520): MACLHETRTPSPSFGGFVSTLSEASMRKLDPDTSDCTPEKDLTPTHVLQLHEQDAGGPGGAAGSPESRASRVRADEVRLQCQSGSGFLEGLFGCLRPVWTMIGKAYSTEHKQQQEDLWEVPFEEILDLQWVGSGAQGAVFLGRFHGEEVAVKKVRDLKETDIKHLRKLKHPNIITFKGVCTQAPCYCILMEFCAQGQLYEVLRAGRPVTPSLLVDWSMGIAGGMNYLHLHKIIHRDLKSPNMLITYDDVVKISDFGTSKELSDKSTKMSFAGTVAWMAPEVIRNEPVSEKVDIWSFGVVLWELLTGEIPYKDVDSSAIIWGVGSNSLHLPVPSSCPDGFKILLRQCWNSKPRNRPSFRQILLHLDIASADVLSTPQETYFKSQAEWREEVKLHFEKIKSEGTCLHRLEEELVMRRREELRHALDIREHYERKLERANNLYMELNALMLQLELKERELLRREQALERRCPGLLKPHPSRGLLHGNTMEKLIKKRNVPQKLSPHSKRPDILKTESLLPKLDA
Sequence of LZK (O43283 168-409): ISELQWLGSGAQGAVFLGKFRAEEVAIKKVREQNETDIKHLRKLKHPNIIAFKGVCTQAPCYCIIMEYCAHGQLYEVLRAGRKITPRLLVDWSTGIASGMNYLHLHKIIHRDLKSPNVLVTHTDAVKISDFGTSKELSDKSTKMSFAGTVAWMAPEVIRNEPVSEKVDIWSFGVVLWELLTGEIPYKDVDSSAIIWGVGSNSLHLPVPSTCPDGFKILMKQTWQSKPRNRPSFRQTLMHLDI

| Compound | IC50 (DLK) | IC50 (LZK) |
| --- | --- | --- |
| CC(NC(=O)c1cc(-c2csc(C(=O)N[C@@H](C)c3ccccc3)c2)cn2nc(N)nc12)C(F)(F)F (single isomer, unassigned) [Compound 72] | 89 nM | 6200 nM |
| CC[C@H](NC(=O)c1cc(-c2cc(C(=O)NC(C)CF)c3nc(N)nn3c2)cs1)c1ccc(F)cc1 (single isomer, unassigned) [Compound 144-2] | 23 nM | 200 nM |
| C[C@H]1CCC[C@@H](NC(=O)c2cc(-c3ccc4nc(N)nn4c3)cs2)C1 (single isomer, unassigned) [Compound 165] | 880 nM | > 30000 nM |
| C[C@H]1CCC[C@H](NC(=O)c2cc(-c3ccc4nc(N)nn4c3)cs2)C1 (single isomer, unassigned) [Compound 198] | 1250 nM | > 30000 nM |
| C[C@H]1CCC[C@H](NC(=O)c2cc(-c3ccc4nc(N)nn4c3)cs2)C1 (single isomer, unassigned) [Compound 199] | 1200 nM | > 30000 nM |
| C[C@H]1CCC[C@@H](NC(=O)c2cc(-c3ccc4nc(N)nn4c3)cs2)C1 (single isomer, unassigned) [Compound 200] | 560 nM | > 30000 nM |
| COC[C@H](NC(=O)c1cc(-c2cc(C(=O)NC(C)C)c3nc(N)nn3c2)cs1)c1ccccc1 (stereo in doubt) [Compound 91] | 3.3 nM | 48 nM |
| CN(C)C(=O)c1cc(-c2csc(C(=O)NCc3ccc(F)cc3)c2)cn2nc(N)nc12 [Compound 1] | 20000 nM | > 30000 nM |
| COc1cccc(CNC(=O)c2cc(-c3cc(C(=O)N(C)C)c4nc(N)nn4c3)cs2)c1 [Compound 2] | 18000 nM | > 30000 nM |
| CCNC(=O)c1cc(-c2csc(C(=O)NCc3ccccc3)c2)cn2nc(N)nc12 [Compound 5] | 160 nM | 1200 nM |
| CCNC(=O)c1cc(-c2csc(C(=O)NCc3cccc(OC)c3)c2)cn2nc(N)nc12 [Compound 6] | 84 nM | 1100 nM |
| CCNC(=O)c1cc(-c2csc(C(=O)NCc3ccc(F)cc3)c2)cn2nc(N)nc12 [Compound 7] | 87 nM | 480 nM |
| CNC(=O)c1cc(-c2csc(C(=O)NCc3cccc(OC)c3)c2)cn2nc(N)nc12 [Compound 8] | 140 nM | 2200 nM |
| CNC(=O)c1cc(-c2csc(C(=O)NCc3ccc(F)cc3)c2)cn2nc(N)nc12 [Compound 9] | 130 nM | 1200 nM |
| CNC(=O)c1cc(-c2csc(C(=O)NCc3ccccc3)c2)cn2nc(N)nc12 [Compound 10] | 120 nM | 990 nM |
| CC(C)NC(=O)c1cc(-c2csc(C(=O)NCc3ccccc3)c2)cn2nc(N)nc12 [Compound 11] | 17 nM | 90 nM |
| CC(C)NC(=O)c1cc(-c2csc(C(=O)NC3CCCCC3)c2)cn2nc(N)nc12 [Compound 12] | 21 nM | 400 nM |
| COc1cccc(CNC(=O)c2cc(-c3cc(C(=O)NC(C)(C)C)c4nc(N)nn4c3)cs2)c1 [Compound 13] | 34 nM | 140 nM |
| CC(C)(C)NC(=O)c1cc(-c2csc(C(=O)NC3CCCCC3)c2)cn2nc(N)nc12 [Compound 14] | 34 nM | 270 nM |
| CC(C)(C)NC(=O)c1cc(-c2csc(C(=O)NCc3ccc(F)cc3)c2)cn2nc(N)nc12 [Compound 15] | 58 nM | 150 nM |
| CC(C)(C)NC(=O)c1cc(-c2csc(C(=O)NCc3ccccc3)c2)cn2nc(N)nc12 [Compound 16] | 37 nM | 130 nM |
| C[C@H](NC(=O)c1cc(-c2cc(C(=O)NC(C)(C)C)c3nc(N)nn3c2)cs1)c1ccc(F)cc1 [Compound 17] | 31 nM | 150 nM |

| Compound | IC50 (DLK) | IC50 (LZK) |
| --- | --- | --- |
| C[C@H](NC(=O)c1cc(-c2cc(C(=O)NC(C)(C)C)c3nc(N)nn3c2)cs1)c1ccccc1 [Compound 18] | 12 nM | 110 nM |
| CC(C)NC(=O)c1cc(-c2csc(C(=O)N[C@@H](C)c3ccccc3)c2)cn2nc(N)nc12 [Compound 20] | 6.32 nM | 122 nM |
| C[C@@H](CO)NC(=O)c1cc(-c2csc(C(=O)NCc3ccccc3)c2)cn2nc(N)nc12 [Compound 21] | 9.3 nM | 40 nM |
| Nc1nc2c(C(=O)NC3CCNC3)cc(-c3csc(C(=O)NCc4ccc(F)cc4)c3)cn2n1 (centres unmarked) [Compound 22] | 185 nM | 650 nM |
| CC(C)(C)NC(=O)c1cc(-c2csc(C(=O)NCc3nc4ccccc4o3)c2)cn2nc(N)nc12 [Compound 23] | 300 nM | 630 nM |
| COCCNC(=O)c1cc(-c2csc(C(=O)NCc3ccc(F)cc3)c2)cn2nc(N)nc12 [Compound 24] | 69 nM | 630 nM |
| C[C@H](NC(=O)c1cc(-c2cc(C(=O)N[C@@H](C)CO)c3nc(N)nn3c2)cs1)c1ccccc1 [Compound 25] | 4.61 nM | 61 nM |
| C[C@H](NC(=O)c1cc(-c2cc(C(=O)N[C@@H](C)CO)c3nc(N)nn3c2)cs1)c1ccc(F)cc1 [Compound 26, 2-Amino-6-(5-{[(1S)-1-(4-fluorophenyl)ethyl]carbamoyl}thiophen-3-yl)-N-[(2S)-1-hydroxypropan-2-yl][1,2,4]triazolo[1,5-a]pyridine-8-carboxamide] | 6.4 nM | 68 nM |
| CC(NC(=O)c1cc(-c2csc(C(=O)NCc3ccc(F)cc3)c2)cn2nc(N)nc12)C(F)(F)F (centres unmarked) [Compound 27] | 58 nM | 99 nM |
| C[C@@H](CO)NC(=O)c1cc(-c2csc(C(=O)NCc3ccc(F)cc3)c2)cn2nc(N)nc12 [Compound 30] | 16 nM | 45 nM |
| COc1cccc(CNC(=O)c2cc(-c3cc(C(=O)N[C@@H](C)CO)c4nc(N)nn4c3)cs2)c1 [Compound 31] | 13 nM | 170 nM |
| CC(C)NC(=O)c1cc(-c2csc(C(=O)NCc3nc4ccccc4o3)c2)cn2nc(N)nc12 [Compound 35] | 32 nM | 120 nM |
| Nc1nc2c(C(=O)NC3CCNC3)cc(-c3csc(C(=O)NCc4ccccc4)c3)cn2n1 (centres unmarked) [Compound 36] | 230 nM | 840 nM |
| COc1cccc(CNC(=O)c2cc(-c3cc(C(=O)NC4CCNC4)c4nc(N)nn4c3)cs2)c1 (centres unmarked) [Compound 37] | 220 nM | 1250 nM |
| Nc1nc2c(C(=O)NC3CNC(=O)C3)cc(-c3csc(C(=O)NCc4ccccc4)c3)cn2n1 (centres unmarked) [Compound 38] | 17 nM | 130 nM |
| C[C@@H](CO)NC(=O)c1cc(-c2csc(C(=O)NC3CCCCC3)c2)cn2nc(N)nc12 [Compound 39] | 37.5 nM | 590 nM |
| C[C@@H](CO)NC(=O)c1cc(-c2csc(C(=O)NCc3nc4ccccc4o3)c2)cn2nc(N)nc12 [Compound 40] | 39 nM | 380 nM |
| NC(=O)c1cc(-c2csc(C(=O)NCc3ccc(F)cc3)c2)cn2nc(N)nc12 [Compound 42] | 70 nM | 480 nM |
| C[C@H](NC(=O)c1cc(-c2cc(C(=O)NC3CC3)c3nc(N)nn3c2)cs1)c1ccccc1 [Compound 44] | 47 nM | 1400 nM |
| C[C@H](NC(=O)c1cc(-c2cc(C(=O)NC3CC3)c3nc(N)nn3c2)cs1)c1ccc(F)cc1 [Compound 45] | 24 nM | 430 nM |
| Nc1nc2c(C(=O)NC3CC3)cc(-c3csc(C(=O)NCc4ccc(F)cc4)c3)cn2n1 [Compound 46] | 360 nM | 1200 nM |
